# From article PMC12090182, “Repurposing of the RIPK1-Selective Benzo[1,4]oxazepin-4-one Scaffold for the Development of a Type III LIMK1/2 Inhibitor” (ACS Chemical Biology, 2025)
# Where two headings read alike, the source gives them in different places.
# Test system: U2OS cells
# Assay type: cell-based
# How it was run: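 HEK293T and U2OS cells (DMEM) and MRC-9 fibroblasts (EMEM) exposed to compounds at 1 and 10 μM. Live-cell confocal imaging of cell shape and fluorescence before and at 12, 24 and 48 h. Normalized to 0.1% DMSO; biological duplicates with SEM.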
smiles,measurement,setting,value
"CN1C(=O)[C@@H](N2CCc3c(nn(Cc4ccccc4)c3C(N)=O)C2=O)COc2cc(Cl)ccc21 [Compound 10, (S)-2-benzyl-6-(8-chloro-5-methyl-4-oxo-2,3,4,5-tetrahydrobenzo[b][1,4]oxazepin-3-yl)-7-oxo-4,5,6,7-tetrahydro-2H-pyrazolo[3,4-c]pyridine-3-carboxamide]",Cell count normalized to cells treated with DMSO control,"1 µM, 0 h, U2OS, replicate 1",1.139
same,Cell count per well,"1 µM, 0 h, U2OS, replicate 1",237
same,Population Fragmented Nuclei (%),"1 µM, 0 h, U2OS, replicate 1",37.05%
same,Population Healthy Nuclei (%),"1 µM, 0 h, U2OS, replicate 1",52.23%
same,Population Pyknosed Nuclei (%),"1 µM, 0 h, U2OS, replicate 1",10.71%
same,Population apoptotic cell (%),"1 µM, 0 h, U2OS, replicate 1",66.67%
same,Population cell that influence microtubule strucutre (%),"1 µM, 0 h, U2OS, replicate 1",2.56%
same,Population with increased mitochondrial mass (%),"1 µM, 0 h, U2OS, replicate 1",0.85%
same,Population with membrane disruption (%),"1 µM, 0 h, U2OS, replicate 1",5.98%
same,Cell count normalized to cells treated with DMSO control,"1 µM, 0 h, U2OS, replicate 2",0.8633
same,Cell count per well,"1 µM, 0 h, U2OS, replicate 2",74
same,Population Fragmented Nuclei (%),"1 µM, 0 h, U2OS, replicate 2",16.44%
same,Population Healthy Nuclei (%),"1 µM, 0 h, U2OS, replicate 2",79.45%
same,Population Pyknosed Nuclei (%),"1 µM, 0 h, U2OS, replicate 2",4.11%
same,Population apoptotic cell (%),"1 µM, 0 h, U2OS, replicate 2",33.33%
same,Population cell that influence microtubule strucutre (%),"1 µM, 0 h, U2OS, replicate 2",1.72%
same,Population with increased mitochondrial mass (%),"1 µM, 0 h, U2OS, replicate 2",1.72%
same,Population with membrane disruption (%),"1 µM, 0 h, U2OS, replicate 2",3.45%
same,Cell count normalized to cells treated with DMSO control,"1 µM, 12 h, U2OS, replicate 1",1.055
same,Cell count per well,"1 µM, 12 h, U2OS, replicate 1",279
same,Population Fragmented Nuclei (%),"1 µM, 12 h, U2OS, replicate 1",23.90%
same,Population Healthy Nuclei (%),"1 µM, 12 h, U2OS, replicate 1",65.44%
same,Population Pyknosed Nuclei (%),"1 µM, 12 h, U2OS, replicate 1",10.66%
same,Population apoptotic cell (%),"1 µM, 12 h, U2OS, replicate 1",75.86%
same,Population cell that influence microtubule strucutre (%),"1 µM, 12 h, U2OS, replicate 1",2.81%
same,Population with increased mitochondrial mass (%),"1 µM, 12 h, U2OS, replicate 1",1.69%
same,Population with membrane disruption (%),"1 µM, 12 h, U2OS, replicate 1",7.87%
same,Cell count normalized to cells treated with DMSO control,"1 µM, 12 h, U2OS, replicate 2",0.9215
same,Cell count per well,"1 µM, 12 h, U2OS, replicate 2",109
same,Population Fragmented Nuclei (%),"1 µM, 12 h, U2OS, replicate 2",11.11%
same,Population Healthy Nuclei (%),"1 µM, 12 h, U2OS, replicate 2",84.26%
same,Population Pyknosed Nuclei (%),"1 µM, 12 h, U2OS, replicate 2",4.63%
same,Population apoptotic cell (%),"1 µM, 12 h, U2OS, replicate 2",80.00%
same,Population cell that influence microtubule strucutre (%),"1 µM, 12 h, U2OS, replicate 2",2.20%
same,Population with increased mitochondrial mass (%),"1 µM, 12 h, U2OS, replicate 2",2.20%
same,Population with membrane disruption (%),"1 µM, 12 h, U2OS, replicate 2",3.30%
same,Cell count normalized to cells treated with DMSO control,"1 µM, 24 h, U2OS, replicate 1",1.136
same,Cell count per well,"1 µM, 24 h, U2OS, replicate 1",354
same,Population Fragmented Nuclei (%),"1 µM, 24 h, U2OS, replicate 1",25.72%
same,Population Healthy Nuclei (%),"1 µM, 24 h, U2OS, replicate 1",65.90%
same,Population Pyknosed Nuclei (%),"1 µM, 24 h, U2OS, replicate 1",8.38%
same,Population apoptotic cell (%),"1 µM, 24 h, U2OS, replicate 1",82.76%
same,Population cell that influence microtubule strucutre (%),"1 µM, 24 h, U2OS, replicate 1",4.39%
same,Population with increased mitochondrial mass (%),"1 µM, 24 h, U2OS, replicate 1",2.63%
same,Population with membrane disruption (%),"1 µM, 24 h, U2OS, replicate 1",7.02%
same,Cell count normalized to cells treated with DMSO control,"1 µM, 24 h, U2OS, replicate 2",0.9633
same,Cell count per well,"1 µM, 24 h, U2OS, replicate 2",137
same,Population Fragmented Nuclei (%),"1 µM, 24 h, U2OS, replicate 2",12.50%
same,Population Healthy Nuclei (%),"1 µM, 24 h, U2OS, replicate 2",81.62%
same,Population Pyknosed Nuclei (%),"1 µM, 24 h, U2OS, replicate 2",5.88%
same,Population apoptotic cell (%),"1 µM, 24 h, U2OS, replicate 2",87.50%
same,Population cell that influence microtubule strucutre (%),"1 µM, 24 h, U2OS, replicate 2",1.80%
same,Population with increased mitochondrial mass (%),"1 µM, 24 h, U2OS, replicate 2",1.80%
same,Population with membrane disruption (%),"1 µM, 24 h, U2OS, replicate 2",3.60%
same,Cell count normalized to cells treated with DMSO control,"1 µM, 48 h, U2OS, replicate 1",1.128
same,Cell count per well,"1 µM, 48 h, U2OS, replicate 1",502
same,Population Fragmented Nuclei (%),"1 µM, 48 h, U2OS, replicate 1",21.34%
same,Population Healthy Nuclei (%),"1 µM, 48 h, U2OS, replicate 1",69.72%
same,Population Pyknosed Nuclei (%),"1 µM, 48 h, U2OS, replicate 1",8.94%
same,Population apoptotic cell (%),"1 µM, 48 h, U2OS, replicate 1",86.36%
same,Population cell that influence microtubule strucutre (%),"1 µM, 48 h, U2OS, replicate 1",2.04%
same,Population with increased mitochondrial mass (%),"1 µM, 48 h, U2OS, replicate 1",3.21%
same,Population with membrane disruption (%),"1 µM, 48 h, U2OS, replicate 1",6.41%
same,Cell count normalized to cells treated with DMSO control,"1 µM, 48 h, U2OS, replicate 2",0.973
same,Cell count per well,"1 µM, 48 h, U2OS, replicate 2",201
same,Population Fragmented Nuclei (%),"1 µM, 48 h, U2OS, replicate 2",6.57%
same,Population Healthy Nuclei (%),"1 µM, 48 h, U2OS, replicate 2",83.33%
same,Population Pyknosed Nuclei (%),"1 µM, 48 h, U2OS, replicate 2",10.10%
same,Population apoptotic cell (%),"1 µM, 48 h, U2OS, replicate 2",85.00%
same,Population cell that influence microtubule strucutre (%),"1 µM, 48 h, U2OS, replicate 2",1.82%
same,Population with increased mitochondrial mass (%),"1 µM, 48 h, U2OS, replicate 2",2.42%
same,Population with membrane disruption (%),"1 µM, 48 h, U2OS, replicate 2",4.85%
same,cytotoxicity,"1 μM, U2OS",no cytotoxicity
same,Cell count normalized to cells treated with DMSO control,"10 µM, 0 h, U2OS, replicate 1",1.1102
same,Cell count per well,"10 µM, 0 h, U2OS, replicate 1",231
same,Population Fragmented Nuclei (%),"10 µM, 0 h, U2OS, replicate 1",38.84%
same,Population Healthy Nuclei (%),"10 µM, 0 h, U2OS, replicate 1",51.34%
same,Population Pyknosed Nuclei (%),"10 µM, 0 h, U2OS, replicate 1",9.82%
same,Population apoptotic cell (%),"10 µM, 0 h, U2OS, replicate 1",95.45%
same,Population cell that influence microtubule strucutre (%),"10 µM, 0 h, U2OS, replicate 1",3.48%
same,Population with increased mitochondrial mass (%),"10 µM, 0 h, U2OS, replicate 1",3.48%
same,Population with membrane disruption (%),"10 µM, 0 h, U2OS, replicate 1",6.09%
same,Cell count normalized to cells treated with DMSO control,"10 µM, 0 h, U2OS, replicate 2",1.062
same,Cell count per well,"10 µM, 0 h, U2OS, replicate 2",91
same,Population Fragmented Nuclei (%),"10 µM, 0 h, U2OS, replicate 2",26.19%
same,Population Healthy Nuclei (%),"10 µM, 0 h, U2OS, replicate 2",64.29%
same,Population Pyknosed Nuclei (%),"10 µM, 0 h, U2OS, replicate 2",9.52%
same,Population apoptotic cell (%),"10 µM, 0 h, U2OS, replicate 2",100.00%
same,Population cell that influence microtubule strucutre (%),"10 µM, 0 h, U2OS, replicate 2",3.70%
same,Population with increased mitochondrial mass (%),"10 µM, 0 h, U2OS, replicate 2",3.70%
same,Population with membrane disruption (%),"10 µM, 0 h, U2OS, replicate 2",7.41%
same,Cell count normalized to cells treated with DMSO control,"10 µM, 12 h, U2OS, replicate 1",1.017
same,Cell count per well,"10 µM, 12 h, U2OS, replicate 1",269
same,Population Fragmented Nuclei (%),"10 µM, 12 h, U2OS, replicate 1",26.62%
same,Population Healthy Nuclei (%),"10 µM, 12 h, U2OS, replicate 1",63.50%
same,Population Pyknosed Nuclei (%),"10 µM, 12 h, U2OS, replicate 1",9.89%
same,Population apoptotic cell (%),"10 µM, 12 h, U2OS, replicate 1",73.08%
same,Population cell that influence microtubule strucutre (%),"10 µM, 12 h, U2OS, replicate 1",4.19%
same,Population with increased mitochondrial mass (%),"10 µM, 12 h, U2OS, replicate 1",6.59%
same,Population with membrane disruption (%),"10 µM, 12 h, U2OS, replicate 1",8.38%
same,Cell count normalized to cells treated with DMSO control,"10 µM, 12 h, U2OS, replicate 2",0.9722
same,Cell count per well,"10 µM, 12 h, U2OS, replicate 2",115
same,Population Fragmented Nuclei (%),"10 µM, 12 h, U2OS, replicate 2",22.52%
same,Population Healthy Nuclei (%),"10 µM, 12 h, U2OS, replicate 2",63.96%
same,Population Pyknosed Nuclei (%),"10 µM, 12 h, U2OS, replicate 2",13.51%
same,Population apoptotic cell (%),"10 µM, 12 h, U2OS, replicate 2",100.00%
same,Population cell that influence microtubule strucutre (%),"10 µM, 12 h, U2OS, replicate 2",7.04%
same,Population with increased mitochondrial mass (%),"10 µM, 12 h, U2OS, replicate 2",9.86%
same,Population with membrane disruption (%),"10 µM, 12 h, U2OS, replicate 2",7.04%
same,Cell count normalized to cells treated with DMSO control,"10 µM, 24 h, U2OS, replicate 1",0.9881
same,Cell count per well,"10 µM, 24 h, U2OS, replicate 1",308
same,Population Fragmented Nuclei (%),"10 µM, 24 h, U2OS, replicate 1",23.59%
same,Population Healthy Nuclei (%),"10 µM, 24 h, U2OS, replicate 1",66.78%
same,Population Pyknosed Nuclei (%),"10 µM, 24 h, U2OS, replicate 1",9.63%
same,Population apoptotic cell (%),"10 µM, 24 h, U2OS, replicate 1",96.55%
same,Population cell that influence microtubule strucutre (%),"10 µM, 24 h, U2OS, replicate 1",6.97%
same,Population with increased mitochondrial mass (%),"10 µM, 24 h, U2OS, replicate 1",4.98%
same,Population with membrane disruption (%),"10 µM, 24 h, U2OS, replicate 1",5.97%
same,Cell count normalized to cells treated with DMSO control,"10 µM, 24 h, U2OS, replicate 2",0.886
same,Cell count per well,"10 µM, 24 h, U2OS, replicate 2",126
same,Population Fragmented Nuclei (%),"10 µM, 24 h, U2OS, replicate 2",18.18%
same,Population Healthy Nuclei (%),"10 µM, 24 h, U2OS, replicate 2",71.90%
same,Population Pyknosed Nuclei (%),"10 µM, 24 h, U2OS, replicate 2",9.92%
same,Population apoptotic cell (%),"10 µM, 24 h, U2OS, replicate 2",100.00%
same,Population cell that influence microtubule strucutre (%),"10 µM, 24 h, U2OS, replicate 2",6.90%
same,Population with increased mitochondrial mass (%),"10 µM, 24 h, U2OS, replicate 2",6.90%
same,Population with membrane disruption (%),"10 µM, 24 h, U2OS, replicate 2",10.34%
same,Cell count normalized to cells treated with DMSO control,"10 µM, 48 h, U2OS, replicate 1",0.9437
same,Cell count per well,"10 µM, 48 h, U2OS, replicate 1",420
same,Population Fragmented Nuclei (%),"10 µM, 48 h, U2OS, replicate 1",19.22%
same,Population Healthy Nuclei (%),"10 µM, 48 h, U2OS, replicate 1",67.40%
same,Population Pyknosed Nuclei (%),"10 µM, 48 h, U2OS, replicate 1",13.38%
same,Population apoptotic cell (%),"10 µM, 48 h, U2OS, replicate 1",90.91%
same,Population cell that influence microtubule strucutre (%),"10 µM, 48 h, U2OS, replicate 1",3.61%
same,Population with increased mitochondrial mass (%),"10 µM, 48 h, U2OS, replicate 1",3.97%
same,Population with membrane disruption (%),"10 µM, 48 h, U2OS, replicate 1",5.78%
same,Cell count normalized to cells treated with DMSO control,"10 µM, 48 h, U2OS, replicate 2",0.7019
same,Cell count per well,"10 µM, 48 h, U2OS, replicate 2",145
same,Population Fragmented Nuclei (%),"10 µM, 48 h, U2OS, replicate 2",21.28%
same,Population Healthy Nuclei (%),"10 µM, 48 h, U2OS, replicate 2",65.96%
same,Population Pyknosed Nuclei (%),"10 µM, 48 h, U2OS, replicate 2",12.77%
same,Population apoptotic cell (%),"10 µM, 48 h, U2OS, replicate 2",83.33%
same,Population cell that influence microtubule strucutre (%),"10 µM, 48 h, U2OS, replicate 2",7.53%
same,Population with increased mitochondrial mass (%),"10 µM, 48 h, U2OS, replicate 2",7.53%
same,Population with membrane disruption (%),"10 µM, 48 h, U2OS, replicate 2",15.05%
same,"impact on tubulin, mitochondrial mass, and cellular permeability in healthy cells","U2OS, 1 μM (Figure 6)",comparable to that of the 0.1% DMSO control
CN1C(=O)[C@@H](N2CCc3c(C(N)=O)nn(Cc4ccccc4)c3C2=O)COc2ccccc21 [Compound 11],Population apoptotic cell (%),"human, 0 h, 1 µM",66.67%
